Molecules are shown by their SMILES. ≈ marks a conversion by molar mass, not a printed value.

The values that follow come from patent US9748489B2, “Copolymer and organic solar cell comprising same” (LG CHEM, LTD., priority 2013, dated 2017).

The series is described as follows: Solubility of each monomer in chlorobenzene at room temperature. It is filed as physicochemical. The source says: The term “solubility of the unit” as used herein means measurement of the solubility in a solution of each unit monomer at room temperature.

Compound `Brc1ccc(-c2ccc(-c3ccc(Br)s3)c3nsnc23)s1` gave a Solubility of 5000 µg/mL (≈ 10.9 mM).

What is called Solubility is the concentration that dissolves in the medium under given conditions. The low end stands for little dissolved substance, the high end for much dissolved substance.
